Measured values from ChEMBL document CHEMBL4043278, “Discovery of benzo[g]indoles as a novel class of non-covalent Keap1-Nrf2 protein-protein interaction inhibitor” (Bioorg Med Chem Lett, 2017).
Active and inactive are the calls of the source. No cut-off for these calls is given here.

How the values were obtained:
HepG2 = assay: Cytotoxicity against human HepG2 cells assessed as reduction in cell viability at 50 uM after 24 hrs by WST8 assay; type: cell-based; settings: hepg2, 24 h
[1] = Metabolic stability in human liver microsomes assessed as parent compound remaining at 1 uM preincubated for 3 mins followed by NADP+ addition measured after 30 mins by LC-MS assay; type: ADME, microsome; settings: read-out: Stability
[2] = biological target: T1, Kelch-like ECH-associated protein 1/Nuclear factor erythroid 2-related factor 2 (Mus musculus) (UniProt Q60795+Q9Z2X8); assay: Inhibition of Keap1-Nrf2 protein-protein interaction in MEF assessed as increase in Nrf2 activation mediated NQO1 mRNA level at 100 uM after 4 hrs by qRT-PCR method
[3] = biological target: T1, Kelch-like ECH-associated protein 1/Nuclear factor erythroid 2-related factor 2 (Mus musculus); assay: Inhibition of Keap1-Nrf2 protein-protein interaction in MEF assessed as increase in Nrf2 activation mediated NQO1 mRNA level at 10 uM after 4 hrs by qRT-PCR method

T1 sequence (Q60795 whole entry, looked up): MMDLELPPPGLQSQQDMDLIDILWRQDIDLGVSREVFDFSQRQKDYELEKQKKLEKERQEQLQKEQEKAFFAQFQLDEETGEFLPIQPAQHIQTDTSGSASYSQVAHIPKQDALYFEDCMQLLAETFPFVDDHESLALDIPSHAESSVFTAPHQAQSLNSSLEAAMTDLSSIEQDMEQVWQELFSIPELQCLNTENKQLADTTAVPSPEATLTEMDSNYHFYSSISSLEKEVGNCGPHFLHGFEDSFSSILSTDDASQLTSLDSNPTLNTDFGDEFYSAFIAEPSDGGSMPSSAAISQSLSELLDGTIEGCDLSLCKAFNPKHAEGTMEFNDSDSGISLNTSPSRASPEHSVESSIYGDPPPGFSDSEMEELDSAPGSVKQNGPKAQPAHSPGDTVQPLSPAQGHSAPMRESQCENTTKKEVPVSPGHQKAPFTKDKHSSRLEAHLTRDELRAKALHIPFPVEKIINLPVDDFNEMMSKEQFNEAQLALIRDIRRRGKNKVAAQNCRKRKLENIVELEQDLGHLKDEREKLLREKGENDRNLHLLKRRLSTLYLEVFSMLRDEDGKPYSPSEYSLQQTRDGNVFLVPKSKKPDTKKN
T1 sequence (Q9Z2X8 whole entry, looked up): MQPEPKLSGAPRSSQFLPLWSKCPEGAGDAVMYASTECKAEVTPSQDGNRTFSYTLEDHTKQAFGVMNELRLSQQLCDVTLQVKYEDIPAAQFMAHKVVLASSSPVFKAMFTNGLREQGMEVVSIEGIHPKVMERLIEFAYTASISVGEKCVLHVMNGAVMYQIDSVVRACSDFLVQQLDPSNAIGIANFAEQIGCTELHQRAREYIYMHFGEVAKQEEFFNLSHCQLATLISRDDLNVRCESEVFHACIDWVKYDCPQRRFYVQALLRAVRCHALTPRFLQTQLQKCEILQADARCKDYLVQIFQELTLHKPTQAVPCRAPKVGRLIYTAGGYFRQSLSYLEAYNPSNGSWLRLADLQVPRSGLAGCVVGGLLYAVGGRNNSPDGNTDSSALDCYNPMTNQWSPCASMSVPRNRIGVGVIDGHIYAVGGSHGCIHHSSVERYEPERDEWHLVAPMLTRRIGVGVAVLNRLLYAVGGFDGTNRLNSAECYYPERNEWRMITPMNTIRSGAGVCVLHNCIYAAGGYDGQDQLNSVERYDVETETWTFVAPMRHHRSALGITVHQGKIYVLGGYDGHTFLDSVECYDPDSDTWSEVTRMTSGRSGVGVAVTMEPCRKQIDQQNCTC

| remaining at 0.5 h, 1 µM [1] [%] | inhibition [2] | inhibition [3] | SMILES | Activity (HepG2) |
| --- | --- | --- | --- | --- |
| 90.8 |  |  | CNNC(=O)c1c(C)n(S(=O)(=O)c2ccc(OC)cc2)c2c1cc(NS(=O)(=O)c1ccc(OC)cc1)c1ccccc12 | Non-Toxic |
| 85.4 |  |  | COc1ccc(S(=O)(=O)Nc2cc3c(C(=O)NNc4ccccc4)c(C)n(S(=O)(=O)c4ccc(OC)cc4)c3c3ccccc23)cc1 | Non-Toxic |
| 9.3 |  |  | COc1ccc(S(=O)(=O)Nc2ccc(NS(=O)(=O)c3ccc(OC)cc3)c3ccccc23)cc1 |  |
| 94.8 |  |  | COc1ccc(NNC(=O)c2c(C)n(S(=O)(=O)c3ccc(OC)cc3)c3c2cc(NS(=O)(=O)c2ccc(OC)cc2)c2ccccc23)cc1 | Non-Toxic |
| 86.5 |  |  | COc1ccc(S(=O)(=O)Nc2cc3c(C(=O)NNc4ccc([N+](=O)[O-])cc4)c(C)n(S(=O)(=O)c4ccc(OC)cc4)c3c3ccccc23)cc1 | Toxic |

The remaining lines, values behind:

| SMILES | remaining at 0.5 h, 1 µM [1] [%] | inhibition [2] | inhibition [3] | Activity (HepG2) |
| --- | --- | --- | --- | --- |
| COc1cccc2c1C(=O)c1c(O)c3c(c(O)c1C2=O)C[C@@](O)(C(=O)CO)C[C@@H]3O[C@H]1C[C@H](N)[C@H](O)[C@H](C)O1 [DOXORUBICIN] |  |  |  | Toxic |
| COc1ccc(S(=O)(=O)N(CC(=O)O)c2ccc(N(CC(=O)O)S(=O)(=O)c3ccc(OC)cc3)c3ccccc23)cc1 | 58.6 |  |  | Non-Toxic |
| CCOc1ccc(S(=O)(=O)Nc2cc3c(C(=O)NO)c(C)n(S(=O)(=O)c4ccc(OCC)cc4)c3c3ccccc23)cc1 | 81 | Active |  | Non-Toxic |
| CC(C)(C)c1cc(O)ccc1O |  |  | Active |  |
| CCOc1ccc(S(=O)(=O)Nc2cc3c(C(=O)NN)c(C)n(S(=O)(=O)c4ccc(OCC)cc4)c3c3ccccc23)cc1 | 46.6 |  |  | Non-Toxic |
